From US10815237B2, “Antimicrobials and methods of making and using same” (BIOVERSYS AG, priority 2016, dated 2020)
Converted amounts (≈) assume the structure as drawn. Where two headings read alike, the source gives them in different places.

What was measured:
[1] = system: Chinese hamster ovary (CHO) cells; test: cytotoxicity against CHO cell line (Cell Titer Blue); assay type: cell-based; settings: Cricetulus griseus, 24 h, CHO-K1 cells, 24 hours incubation, percent cell kill
Experimental: The compounds of the present disclosure were tested for cytotoxicity against Chinese hamster ovary (CHO) cells.
The assay was performed by seeding CHO—K1 in F12K medium containing 13.33% Fetal Bovine Serum […]. 37.5 μl of cell suspension at a concentration of 9,500 cells/well was plated into each column of a 384-well black clear bottom assay plate with the exception of a negative (no cell) control column, and allowed to adhere for 2 hours. The culture media was then removed from the 175 cm^2 flask(s) and the cell monolayer washed with 10 mL of Phosphate Buffered Saline PBS. 3 mL of Cellstripper™ was then added and the flask was incubated for approximately 5 min at 37° C. The cells were dissociated by agitation and 7 mL of F 12K medium containing 10% FBS was added to the flask. A homogeneous cell suspension was obtained by trituration of the flask. The cells were counted with a hemocytometer by diluting an aliquot of the cell suspension in PBS with 0.4% trypan blue. Typically, a ratio of 100 μl cell suspension to 1800 μl PBS to 100 μl trypan blue was used.
The volume of cell suspension containing the number of cells needed to seed the plate(s) (15.2 mL containing 3.8×10^6 cells) was calculated and transferred to a 50 mL centrifuge tube with the appropriate volume of media. 37.5 μl of cells were added to each well of the 384 well plate except for the negative (no cell) control column. A cytotoxicity 100-fold dilution plate was then prepared by manually pipetting 18 μl of 100% DMSO into two columns of an empty low volume dilution plate. 2 μl of a 50 mM solution of compounds 1-23 from the translation plate were manually pipetted into the corresponding columns of the 100-fold dilution plate. 10 μl of 100% DMSO was manually pipetted into all remaining columns of the 100-fold plate.
A 4-fold cytotoxicity plate was prepared beforehand by manually pipetting 48 μl of F12K media (without DMSO and without FBS) into each well of a matrix 384 well plate. The test samples in the 100-fold dilution plate were mixed and diluted. Ten 2-fold dilutions were performed for each compound in duplicate. The 384 cannula array then transferred 2 μl to the 48 μl of media in the cytotoxicity 4-fold dilution plate. The array was then mixed and 12.5 μl of samples from the cytotoxicity 4-fold dilution plate were transferred to the 37.5 μl of cells and media. The final top concentration of samples at this point in the procedure was 50 μM with 10 subsequent 1:2 dilutions down to […]. The final DMSO concentration were 1% and the final concentration of FBS was 10%.
Cycloheximide was run as a control. Specifically, Cycloheximide was diluted to 0.1 mM from 100 mM stock […] and was added to the cytotoxicity 100-fold plate. Upon addition to the cell plate, a range of 1 μM to 1 nM of cycloheximide was run.
A column separate from the one (referred to above) that served as the negative control was used for cell control wells to which only media was added.
The plates were then incubated for 24 hours at 37° C. and 5% CO2. […] The two columns used earlier to prepare the 100-fold dilution plate by pipetting 18 μl of 100% DMSO contained the samples tested at 200 μM. After the 24 hour incubation period, the 4 μl of Cell Titer blue was added to each well using a Multichannel Matrix pipettor. The plates were returned to the incubator and incubated for an additional 5 hours. Fluorescence (530 nm excitation wavelength/590 nm emission wavelength) was measured on a Wallac Victor microplate reader.
Cell viability was assessed fluorometrically after a 5 hour incubation with resazurin (Cell Titer Blue™), which is reduced by living cells to the fluorescent resorufin.
The average fluorescence for the negative control was determined to obtain the average blank fluorescence. The average blank fluorescence was subtracted from the fluorescence values obtained for all the test agents. The resulting values are the corrected fluorescence. […]

[2] = system: E. coli DH10B mcr-1 transformant; test: CLSI broth microdilution MIC, E. coli DH10B mcr-1 transformant; assay type: cell-based
Experimental: (§1) Four compounds, including Compound No. 8 of the present application (RX-04D) were tested against (i) multiresistant Enterobacteriaceae and Acinetobacter with carbapenemases; (ii) Enterobacteriaceae with MCR-1; and (iii) P. aeruginosa with altered efflux (see Tables 4 and 5). In this case, MCR-1 is relevant because its activity reduces the negative charge of lipopolysaccharides, potentially affecting binding of poly-basic molecules such as the compounds tested herein, as well as polymyxins.
(§2) MICs of the four tested compounds and comparators (amikacin, cefepime, colistin, meropenem and tigecyline) were determined by CLSI broth microdilution using pre-prepared plates (Trek Diagnostic Systems) (CLSI Approved Standard M7-A10). Carbapenemase and mcr-1 genes were detected by PCR or sequencing. Efflux levels in P. aeruginosa isolates were inferred by interpretive reading of antibiogram data.

[3] = system: Eschericia coli (E. coli) strain ATCC25922; test: standard microdilution MIC, E. coli; assay type: cell-based, Escherichia coli; settings: Escherichia coli
Experimental: (§3) The in vitro activity of the compounds of the present disclosure can be determined. Antimicrobial testing is typically performed to determine the minimum inhibitory concentration (MIC). Minimum inhibitory concentrations (MICs) are determined by the microdilution method in a final volume of 100 μl according to protocols outlined by The Clinical and Laboratory Standards Institute (CLSI). Performance standards for reference strains are assessed within the same experimental design to maintain quality control. See, for example, Clinical Laboratory Standards Institute: Methods for dilution antimicrobial susceptibility tests for bacteria that grow aerobically M7-A8. Approved Standard-Eighth Edition. Wayne, Pa.: CLSI; December 2008; and Clinical Laboratory Standards Institute: Performance Standards for Antimicrobial Susceptibility Testing M100-S20; Approved Standard-Twentieth Edition. Wayne, Pa.: CLSI; June 2010.
(§4) The compounds of the present disclosure were tested for antimicrobial activity. The Compounds 1-23 were run against Eschericia coli (E. coli) strain ATCC25922 and against Staphylococcus aureus (S. aureus) 11540 strain using a standard microdilution assay to determine minimum inhibitory concentrations (MICs). […] It will be recognized by one skilled in the art that the compounds can be assessed against other bacterial organisms and that the presentation of data for activity against Eschericia coli and Staphylococcus aureus are illustrative and in no way is intended to limit the scope of the present disclosure. The compounds of the present disclosure can be assayed against a range of other microorganisms depending upon the performance activity desired to be gathered. Furthermore, the “+” and “−” representation and the selection of a cutoff value of 16 micrograms/mL is also illustrative and in no way is intended to limit the scope of the present disclosure.

[4] = system: Staphylococcus aureus (S. aureus) 11540 strain; test: standard microdilution MIC, S. aureus; assay type: cell-based; settings: Staphylococcus aureus
Experimental: as §3, §4

P. aeruginosa (n=20) = test: CLSI broth microdilution MIC, P. aeruginosa; assay type: cell-based; settings: for share of MICs ≥16 mg/L: P. aeruginosa isolates, stated jointly for analogues C and D; for MIC: Pseudomonas aeruginosa
Experimental: as §1, §2

E. coli DH10B recipient = test: CLSI broth microdilution MIC, E. coli DH10B recipient; assay type: cell-based
Experimental: as §1, §2

[5] = system: A. baumannii isolates (n=10); test: CLSI broth microdilution MIC, A. baumannii; assay type: cell-based; settings: for relative activity among analogues: 10 A. baumannii; for MIC: Acinetobacter baumannii, A. baumannii
Experimental: as §1, §2

[6] = system: Enterobacteriaceae (n=68); test: CLSI broth microdilution MIC, Enterobacteriaceae panel; assay type: cell-based; settings: for peak of unimodal MIC distribution: 68 Enterobacteriaceae
Experimental: as §1, §2

[7] = system: Enterobacteriaceae with MCR-1 (MCR-1 isolates, n=14); test: CLSI broth microdilution MIC, MCR-1 isolates; assay type: cell-based; settings: all MCR-1 isolates (n=14)
Experimental: as §1, §2

CPE (n=36) = test: CLSI broth microdilution MIC, carbapenemase producers (CPE); assay type: cell-based, Enterobacteriaceae; settings: 35/36 (97%) for RX-04A
Experimental: as §1, §2

[8] = Escherichia coli, DH10BRECIPIENT, read-out: MIC

Compound: C[C@H](N)CCCc1cc(Cl)c(F)c(-c2cc3cn(-c4ccc([C@@H]5CCC[C@@H](CCNC(=N)CN)N5)cc4)c(=O)nc3[nH]2)c1 [Compound 8]
- IC50 [1]: 95.2 µM
- MIC ([2]; Escherichia coli): 1 µg/mL (≈ 1.65 µM)
- MIC [3]: ≤ 16 µg/mL
- MIC [4]: ≤ 16 µg/mL
- share of MICs ≥16 mg/L (P. aeruginosa (n=20)): 48%
- MIC (E. coli DH10B recipient; [8]): 1 µg/mL (≈ 1.65 µM)
- relative activity among analogues [5]: least active analogue
- peak of unimodal MIC distribution [6]: 2 µg/mL

Compound: C=C[C@H](N)CCCc1cc(Cl)c(F)c(-c2cc3cn(-c4ccc([C@@H]5CCC[C@@H](CCNC(=N)CN)N5CCCF)cc4)c(=O)nc3[nH]2)c1 [Compound 64]
- IC50 [1]: > 100 µM
- MIC [3]: ≤ 16 µg/mL
- MIC [4]: ≤ 16 µg/mL

Compound: C=C[C@H](N)CCCc1cc(Cl)c(F)c(-c2cc3cn(-c4cc(F)c([C@@H]5CCC[C@@H](CCNC(=N)CN)N5CCCF)c(SC)c4)c(=O)nc3[nH]2)c1 [Compound 65]
- IC50 [1]: 5.2 µM
- MIC [3]: ≤ 16 µg/mL
- MIC [4]: ≤ 16 µg/mL

Compound: C=C[C@H](N)CCCc1cc(Cl)c(F)c(-c2cc3cn(-c4ccc([C@@H]5CCC[C@@H](CCNC(=N)CN)N5CCCF)c(F)c4)c(=O)nc3[nH]2)c1 [Compound 66]
- IC50 [1]: 37.3 µM
- MIC [3]: ≤ 16 µg/mL
- MIC [4]: ≤ 16 µg/mL

Compound: CNCC(=N)NCC[C@@H]1CCC[C@@H](c2ccc(-n3cc4cc(-c5cc(CCC[C@H](C)N)cc(Cl)c5F)[nH]c4nc3=O)cc2)N1 [Compound 67]
- IC50 [1]: > 100 µM
- MIC [3]: ≤ 16 µg/mL
- MIC [4]: ≤ 16 µg/mL

Compound: C[C@H](N)CCCc1cc(Cl)c(F)c(-c2cc3cn(-c4ccc([C@@H]5CCC[C@@H](CNC(=N)CN)N5)cc4)c(=O)nc3[nH]2)c1 [Compound 68]
- IC50 [1]: 85.3 µM
- MIC [3]: ≤ 16 µg/mL
- MIC [4]: ≤ 16 µg/mL

Compound: Cc1c2cc(-c3cc(CCC[C@H](C)N)cc(Cl)c3F)[nH]c2nc(=O)n1-c1ccc([C@@H]2CCC[C@@H](CCNC(=N)CN)N2)cc1 [Compound 69]
- IC50 [1]: > 100 µM
- MIC [3]: ≤ 16 µg/mL
- MIC [4]: ≤ 16 µg/mL

Compound: C[C@H](N)CCCc1cc(OC(F)(F)F)c(F)c(-c2cc3cn(-c4ccc([C@@H]5CCC[C@@H](CCNC(=N)N)N5)cc4)c(=O)nc3[nH]2)c1 [RX-04A]
- MIC relative to MIC for E. coli ATCC 25922 [7]: ≤ 2 fold
- MIC ([2]; Escherichia coli): 0.25 µg/mL (≈ 0.389 µM)
- change of MIC with elevated efflux (P. aeruginosa (n=20); P. aeruginosa isolates with elevated efflux): not raised
- MIC (P. aeruginosa (n=20); 19/20 (95%) P. aeruginosa isolates, read-out: MICs): 1 to 4 µg/mL (≈ 1.56 to 6.22 µM)
- MIC (P. aeruginosa (n=20); P. aeruginosa, summary, read-out: MICs mostly): 1 to 4 µg/mL (≈ 1.56 to 6.22 µM)
- MIC (E. coli DH10B recipient; [8]): 0.25 µg/mL (≈ 0.389 µM)
- relative activity among analogues [5]: lowest MICs
- MIC ([5]; 7/10 values, read-out: MICs): 1 to 2 µg/mL (≈ 1.56 to 3.11 µM)
- MIC ([5]; summary, read-out: MICs mostly): 1 to 2 µg/mL (≈ 1.56 to 3.11 µM)
- MIC ([6]; 67/68 (>98%) of Enterobacteriaceae, read-out: MICs): 0.25 to 2 µg/mL (≈ 0.389 to 3.11 µM)
- peak of unimodal MIC distribution [6]: 1 µg/mL
- MIC ([6]; Enterobacteriaceae, summary, read-out: MICs mostly): 1 to 2 µg/mL (≈ 1.56 to 3.11 µM)
- MIC relative to MIC for E. coli ATCC 25922 (CPE (n=36)): ≤ 4 fold

Compound: CC(=N)NCC[C@@H]1CCC[C@@H](c2ccc(-n3cc4cc(-c5cc(CCC[C@@H](N)CO)cc(Cl)c5F)[nH]c4nc3=O)cc2F)N1 [RX-04B]
- MIC ([2]; Escherichia coli): 0.5 µg/mL (≈ 0.799 µM)
- MIC (E. coli DH10B recipient; [8]): 0.5 µg/mL (≈ 0.799 µM)
- peak of unimodal MIC distribution [6]: 1 µg/mL

Compound: CSc1cc(-n2cc3cc(-c4cc(CCC[C@@H](N)C5CC5)cc(Cl)c4F)[nH]c3nc2=O)ccc1[C@@H]1CCC[C@@H](CCNC(C)=N)N1 [RX-04C]
- MIC ([2]; Escherichia coli): 0.5 µg/mL (≈ 0.753 µM)
- share of MICs ≥16 mg/L (P. aeruginosa (n=20)): 48%
- MIC (E. coli DH10B recipient; [8]): 0.5 µg/mL (≈ 0.753 µM)
- peak of unimodal MIC distribution [6]: 2 µg/mL

Compound: colistin [reference compound]
- MIC ([2]; E. coli DH10B MCR-1 Transformant): 4 µg/mL
- MIC (E. coli DH10B recipient): 0.25 µg/mL
